- melting point: 248 to 249 °C
Compound: CN1CCN(c2cccc3c2CC(C(=O)Nc2ccc(N4CCOCC4)cc2)C3)CC1 (stereo not shown) [Example 4, 4-(4-Methylpiperazin-1-yl)-N-(4-morpholinophenyl)indan-2-carboxamide]

Reference: patent US7439356B2, “Substituted indan derivatives” (AstraZeneca AB, priority 1997, dated 2008)
